As usually defined, the IC50 is the concentration needed to halve the response being measured. Higher therefore signals a need for much substance.

The target in this assay is human-KAT6A (MYST domain 507-778 aa) (Homo sapiens (Human), UniProt Q92794). The assay can be described thus: KAT6A biochemical assay (TR-FRET). Conditions: H4 peptide 200 nM, acetyl-CoA 600 nM. From the text: TR-FRET based method was used for assaying compounds of the present invention for KAT6A enzyme inhibitory activity. TR-FRET is homogeneous proximity assay where Europium-labelled anti-acetyl lysine antibody binds to the acetylated substrate labelled with biotin which in turn binds to streptavidin labelled APC fluorescence acceptor. Europium can transfer energy to APC in the complex and the interaction of two dye-labelled binding partners is detected by the energy transfer between a donor and an acceptor dye, and the subsequent light emission by the acceptor dye. KAT6A transfer an acetyl group from acetyl CoA to lysine amino acids of histones/target proteins. Typically, 5 μL of human-KAT6A (MYST domain 507-778 aa) in assay buffer (100 mM Tris HCl (pH 7.8), 15 mM NaCl, 1 mM EDTA, 0.01% Tween-20, 0.02% BSA, 1 mM DTT) is added to 384-well plate containing 5 μL of selected test compound in final 1% DMSO, serially diluted in 1:3 in an 8-10-point titration. The selected compound of the present invention and enzyme are incubated for 30 min at room temperature. Next, 5 μL of substrate mix containing histone H4 peptide and acetyl-CoA in assay buffer is added to the plate. The final concentrations of H4 peptide and acetyl-CoA are 200 nM and 600 nM respectively. Following 30 min reaction at room temperature, 5 μL of detection mix containing Europium labelled anti-acetyl antibody and streptavidin-APC is added to the reaction wells. The plate is further incubated for 45 min at room temperature and is read in TR-FRET mode (Ex:340 nm; Em: 615 nm and 665 nm) on a plate reader. The percent inhibition was calculated from the ratio of the fluorescence (FL) intensities [(F665/F615)×10,000) using the formula […]. IC50 values of the compounds were determined by fitting the dose-response data to sigmoidal curve fitting equation using Graph pad prism software V8.
(In TR-FRET formats the signal depends on donor and acceptor labels being close together.)

Structures are written as SMILES.

Chain of human-KAT6A (MYST domain 507-778 aa) (Q92794 507-778): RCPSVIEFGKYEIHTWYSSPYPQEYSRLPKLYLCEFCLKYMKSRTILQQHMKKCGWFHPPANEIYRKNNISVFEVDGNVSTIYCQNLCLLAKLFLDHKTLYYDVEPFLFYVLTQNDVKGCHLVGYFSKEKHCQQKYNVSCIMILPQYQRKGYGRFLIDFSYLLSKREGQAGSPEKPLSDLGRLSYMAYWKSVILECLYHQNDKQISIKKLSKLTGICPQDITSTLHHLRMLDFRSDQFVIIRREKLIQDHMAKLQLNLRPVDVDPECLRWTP

For the molecule `COc1cccc(OC)c1S(=O)(=O)Nc1noc2cc(-c3scnc3C)c3c(c12)OCC3` [Compound 11], the IC50 worked out at 88 nM. In the case of `COc1cc2c(cc1S(=O)(=O)Nc1noc3cc(Cn4cccn4)c4c(c13)OCC4)CCC2` [Compound 44] it was 32.7 nM.

The values are drawn from patent US20250059204A1, “FUSED BENZOISOXAZOLYL COMPOUNDS AS KAT6A INHIBITORS” (Aurigene Oncology Limited, priority 2021, published 2025).
